Consider eight compounds from patent US11084800B2 (Achillion Pharmaceuticals, Inc., priority 2017, dated 2021).

Structures are written as SMILES. pIC50: −log10 of the molar value. Like-named read-outs stand apart in the source and are kept apart here.

This experiment has as its target Human Factor D (Homo sapiens (Human), UniProt P00746). Put plainly: Human Factor D Assay. It is filed as biochemical. The method in brief: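 Thioester substrate Z-L-Lys-SBz (100 μM) with Ellman's reagent DTNB (100 μM) reports activity of 80 nM human serum-derived enzyme, kinetically at 405 nm over 30 min. Compound preincubated 5 min, room temperature, pH 7.5 Tris/1 M NaCl; IC50 by nonlinear fit of rates.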

[1] abbreviates: Factor D inhibition, assay of Example 10, read-out: IC5 (Stars).
Setting [2] is: Table 8, Factor D 80 nM, substrate Z-L-Lys-SBz, read-out: IC50.

Chain of Human Factor D (P00746 26-253): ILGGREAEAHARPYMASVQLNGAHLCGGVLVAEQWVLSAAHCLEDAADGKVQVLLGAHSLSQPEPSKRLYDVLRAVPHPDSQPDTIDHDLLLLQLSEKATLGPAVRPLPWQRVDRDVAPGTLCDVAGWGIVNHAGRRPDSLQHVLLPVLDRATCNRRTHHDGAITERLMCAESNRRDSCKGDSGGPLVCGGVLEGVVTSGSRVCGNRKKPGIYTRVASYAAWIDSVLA

In the case of `CCc1cc(Br)nc(NC(=O)[C@@H]2C[C@@]3(C)C[C@H]3N2C(=O)Cn2nc(C(C)=O)c3cc(-c4cnc(C)nc4)ccc32)c1` [Compound 532, (1R,3S,5R)-2-(2-(3-acetyl-5-(2-methylpyrimidin-5-yl)-1H-indazol-1-yl)acetyl)-N-(6-bromo-4-ethylpyridin-2-yl)-5-methyl-2-azabicyclo[3.1.0]hexane-3-carboxamide], the pIC50 under setting [1] was greater than 6.00. Turning to `CC(=O)c1nn(CC(=O)N2[C@H](C(=O)NC(CCc3ccccc3)(CCc3ccccc3)C(=O)O)C[C@@]3(C)C[C@@H]23)c2c(C)cc(-c3cnc(C)nc3)cc12` [Compound 533, 2-((1R,3S,5R)-2-(2-(3-acetyl-7-methyl-5-(2-methylpyrimidin-5-yl)-1H-indazol-1-yl)acetyl)-5-methyl-2-azabicyclo[3.1.0]hexane-3-carboxamido)-2-phenethyl-4-phenylbutanoic acid], the pIC50 under setting [1] is less than 5.00. Same read-out and setting: the value for `CC(=O)c1nn(CC(=O)N2[C@H](C(=O)Nc3cc(CC(N)=O)cc(Br)n3)C[C@@]3(C)C[C@@H]23)c2ccc(-c3cnc(C)nc3)cc12` [Compound 534, (1R,3S,5R)-2-(2-(3-acetyl-5-(2-methylpyrimidin-5-yl)-1H-indazol-1-yl)acetyl)-N-(4-(2-amino-2-oxoethyl)-6-bromopyridin-2-yl)-5-methyl-2-azabicyclo[3.1.0]hexane-3-carboxamide] was greater than 6.00.

For the compound `CCCCCCCCCCCCCCCC(=O)NCCCC[C@H](NC(=O)[C@H](CCC(=O)O)NC(=O)[C@H](Cc1ccc(O)cc1)NC(=O)[C@H](CCC(=O)O)NC(C)=O)C(=O)N[C@@H](CCC(=O)O)C(=O)N[C@@H](Cc1ccc(O)cc1)C(=O)N[C@@H](CCC(=O)O)C(=O)NCCOCCOCCOCCOCCOCCOCCOCCOCCOCCOCCOCCOCCOCCOCCOCCOCCOCCOCCOCCOCCOCCOCCOCCOCCC(=O)NC[C@@]12C[C@@H](C(=O)Nc3nc(Br)ccc3C)N(C(=O)Cn3nc(C(C)=O)c4cc(-c5cnc(C)nc5)cc(C)c43)[C@@H]1C2` [Compound 535], under setting [2], the pIC50 was 5.00 to 6.00. Turning to `CC(=O)c1nn(CC(=O)N2[C@H](C(=O)NCCCCc3ccccc3)C[C@@]3(C)C[C@@H]23)c2c(C)cc(-c3cnc(C)nc3)cc12` [Compound 538, (1R,3S,5R)-2-(2-(3-acetyl-7-methyl-5-(2-methylpyrimidin-5-yl)-1H-indazol-1-yl)acetyl)-5-methyl-N-(4-phenylbutyl)-2-azabicyclo[3.1.0]hexane-3-carboxamide], under setting [2], the pIC50 is greater than 6.00. Still for that read-out and setting: the result for `CC(=O)c1nn(CC(=O)N2[C@H](C(=O)NCCCCCc3ccccc3)C[C@@]3(C)C[C@@H]23)c2c(C)cc(-c3cnc(C)nc3)cc12` [Compound 539, (1R,3S,5R)-2-(2-(3-acetyl-7-methyl-5-(2-methylpyrimidin-5-yl)-1H-indazol-1-yl)acetyl)-5-methyl-N-(5-phenylpentyl)-2-azabicyclo[3.1.0]hexane-3-carboxamide] reads greater than 6.00.

As to `CC(=O)c1nn(CC(=O)N2[C@H](C(=O)NCCCCCCc3ccccc3)C[C@@]3(C)C[C@@H]23)c2c(C)cc(-c3cnc(C)nc3)cc12` [Compound 540, (1R,3S,5R)-2-(2-(3-acetyl-7-methyl-5-(2-methylpyrimidin-5-yl)-1H-indazol-1-yl)acetyl)-5-methyl-N-(6-phenylhexyl)-2-azabicyclo[3.1.0]hexane-3-carboxamide], under setting [2], the pIC50 was 5.00 to 6.00. For the compound `CC(=O)c1nn(CC(=O)N2[C@H](C(=O)Nc3cc(C(C)C)cc(Br)n3)C[C@@]3(C)C[C@@H]23)c2ccc(-c3cnc(C)nc3)cc12` [Compound 541, (1R,3S,5R)-2-(2-(3-acetyl-5-(2-methylpyrimidin-5-yl)-1H-indazol-1-yl)acetyl)-N-(6-bromo-4-isopropylpyridin-2-yl)-5-methyl-2-azabicyclo[3.1.0]hexane-3-carboxamide], the pIC50 under setting [1] was greater than 6.00.
